Experimental data taken from DBAASP.
Values after ≈ are worked out from the molar mass of the structure shown. Values joined by “and” are separate entries in the source; they are usually repeats but may differ in a detail not shown here. Equal entries are not always repeated. Values belong to the molecule of their own block, whether it stands above or below them.

How the values were obtained:
Experiment in all cases: ≥ marks a high value that may be exact or a test limit, other limits are often not marked, values filed in µg/mL are converted to µM
[1] = test system: Acinetobacter baumannii ATCC 19606
[2] = test system: Acinetobacter junii RT-4
[3] = test system: Bacillus megaterium Bm11
[4] = test system: Candida albicans ATCC 10231
[5] = test system: Enterococcus faecalis ATCC 29212
[6] = test system: Escherichia coli ATCC 25922
[7] = test system: Escherichia coli D21
[8] = test system: Pseudomonas aeruginosa ATCC 15692
[9] = test system: Pseudomonas aeruginosa ATCC 27853
[10] = test system: Pseudomonas syringae pv. tabaci 1918NCPPB
[11] = test system: Saccharomyces cerevisiae
[12] = test system: Schizosaccharomyces pombe
[13] = test system: Staphylococcus aureus ATCC 25923
[14] = test system: Staphylococcus aureus Cowan 1
[15] = test system: Staphylococcus capitis 1
[16] = test system: Staphylococcus epidermidis ATCC 12228
[17] = test system: Streptococcus pyogenes ATCC 21547
[18] = test system: Yersinia pseudotuberculosis YPIII
[19] = test system: Candida albicans ATCC 90028
[20] = test system: Candida albicans
[21] = test system: Candida krusei ATCC 6258
[22] = test system: Candida krusei
[23] = test system: Candida parapsilosis ATCC 22019
[24] = test system: Candida parapsilosis
[25] = test system: Candida tropicalis B51a/5
[26] = test system: Candida tropicalis
[27] = test system: Enterobacter cloacae HNTCC 53001
[28] = test system: Klebsiella pneumoniae KK3 9904
[29] = test system: Proteus mirabilis ATCC 25933
[30] = test system: Staphylococcus epidermidis RP62A
[31] = test system: Aeromonas hydrophila
[32] = test system: Bacillus pumilus ATCC 63202
[33] = test system: Bacillus subtilis ATCC 9372
[34] = test system: Bacillus subtilis
[35] = test system: Candida albicans ATCC 14053
[36] = test system: Edwardsiella tarda
[37] = test system: Enterococcus avium
[38] = test system: Enterococcus faecalis ATCC 51299
[39] = test system: Enterococcus faecium ATCC 51559
[40] = test system: Escherichia coli
[41] = test system: Gardnerella vaginalis ATCC 14018
[42] = test system: Gardnerella vaginalis ATCC 49145
[43] = test system: Gardnerella vaginalis
[44] = test system: Lactiplantibacillus plantarum ATCC 14917
[45] = test system: Lactobacillus crispatus ATCC 33820
[46] = test system: Lactobacillus crispatus
[47] = test system: Lactobacillus gasseri ATCC 33323
[48] = test system: Lactobacillus jensenii ATCC 25258
[49] = test system: Pseudomonas aeruginosa
[50] = test system: Staphylococcus aureus ATCC 31007
[51] = test system: Staphylococcus aureus ATCC 43300
[52] = test system: Staphylococcus aureus ATCC 49476
[53] = test system: Staphylococcus aureus MR
[54] = test system: Staphylococcus aureus
[55] = test system: Streptococcus agalactiae
[56] = test system: Streptococcus anginosus
[57] = test system: Streptococcus intermedius
[58] = test system: Streptococcus pasteurianus

MIC [1]: 6 µM (≈ 10 µg/mL)
MIC [2]: 3 µM (≈ 5 µg/mL)
MIC [3]: 3 µM (≈ 5 µg/mL)
MIC [4]: 12 µM (≈ 20 µg/mL)
MIC [5]: 12 µM (≈ 20 µg/mL)
MIC [6]: 24 µM (≈ 40 µg/mL)
MIC [7]: 12 µM (≈ 20 µg/mL)
MIC [8]: 12 µM (≈ 20 µg/mL)
MIC [9]: 24 µM (≈ 40 µg/mL)
MIC [10]: 6 µM (≈ 10 µg/mL)
MIC [11]: 24 µM (≈ 40 µg/mL)
MIC [12]: 12 µM (≈ 20 µg/mL)
MIC [13]: 6 µM (≈ 10 µg/mL)
MIC [14]: 6 µM (≈ 10 µg/mL)
MIC [15]: 3 µM (≈ 5 µg/mL)
MIC [16]: 3 µM (≈ 5 µg/mL)
MIC [17]: 3 µM (≈ 5 µg/mL)
MIC [18]: 3 µM (≈ 5 µg/mL)
SMILES: CC[C@H](C)[C@H](NC(=O)[C@H](CCCN=C(N)N)NC(=O)CNC(=O)[C@H](CC(C)C)NC(=O)[C@H](Cc1ccccc1)NC(=O)[C@H](CCCCN)NC(=O)[C@H](CO)NC(=O)[C@H](Cc1ccccc1)NC(=O)[C@H](Cc1c[nH]c2ccccc12)NC(=O)[C@H](CCCN=C(N)N)NC(=O)[C@@H](NC(=O)[C@@H](N)Cc1ccccc1)C(C)C)C(=O)N[C@@H](CC(C)C)C(N)=O [FVRWFSKFLGRIL]

MIC [19]: 25 µM (≈ 64.4 µg/mL)
MIC [20]: 40 µM (≈ 103 µg/mL)
MIC [21]: ≥ 40 µM
MIC [22]: ≥ 40 µM
MIC [23]: ≥ 40 µM
MIC [24]: ≥ 40 µM
MIC [25]: 10 µM (≈ 25.8 µg/mL)
MIC [26]: 20 µM (≈ 51.5 µg/mL)
MIC [27]: ≥ 40 µM
MIC [5]: 20 µM (≈ 51.5 µg/mL)
MIC [6]: 50 µM (≈ 129 µg/mL)
MIC [28]: ≥ 40 µM
MIC [29]: ≥ 40 µM
MIC [9]: 40 µM (≈ 103 µg/mL)
MIC [13]: 3 µM (≈ 7.73 µg/mL)
MIC [30]: 5 µM (≈ 12.9 µg/mL)
SMILES: CC[C@H](C)[C@H](NC(=O)[C@@H]1CCCN1C(=O)[C@H](CC(C)C)NC(=O)[C@@H](N)Cc1ccccc1)C(=O)N[C@@H](CC(C)C)C(=O)N[C@@H](C)C(=O)N[C@@H](CO)C(=O)N[C@@H](CC(C)C)C(=O)N[C@@H](C)C(=O)N[C@@H](C)C(=O)N[C@@H](CCCCN)C(=O)N[C@@H](Cc1ccccc1)C(=O)NCC(=O)N1CCC[C@H]1C(=O)N[C@@H](CCCCN)C(=O)N[C@@H](CC(C)C)C(=O)N[C@@H](Cc1ccccc1)C(=O)N[C@@H](CO)C(=O)N[C@@H](CC(C)C)C(=O)N[C@H](C(=O)N[C@H](C(=O)N[C@@H](CCCCN)C(=O)N[C@@H](CCCCN)C(=O)N[C@@H](CO)C(=O)O)[C@@H](C)O)C(C)C [FLPILASLAAKFGPKLFSLVTKKS]

MIC [31]: ≥ 160 µM
MIC [32]: 1.3 µM (≈ 3.88 µg/mL)
MIC [33]: 2.7 µM (≈ 8.05 µg/mL)
MIC [34]: 1.7 µM (≈ 5.07 µg/mL)
MIC [35]: 2.62 µM (≈ 7.81 µg/mL)
MIC [20]: 26.7 µM and 42.9 µM
MIC [36]: 20 µM (≈ 59.6 µg/mL)
MIC [37]: 0.926 µM (≈ 2.76 µg/mL)
MIC [38]: 10.8 µM (≈ 32.2 µg/mL)
MIC [39]: 2.7 µM (≈ 8.05 µg/mL)
MIC [6]: 42.9 µM (≈ 128 µg/mL)
MIC [40]: 5 µM and 1.85 µM
MIC [41]: 1.31 µM and 2.62 µM
MIC [42]: 1.31 µM (≈ 3.91 µg/mL)
MIC [43]: 1.85 µM (≈ 5.53 µg/mL)
MIC [45]: ≥ 41.9 µM
MIC [46]: 29.6 µM (≈ 88.4 µg/mL)
MIC [47]: ≥ 168 µM
MIC [48]: ≥ 83.8 µM
MIC [9]: 21.5 µM (≈ 64 µg/mL)
MIC [49]: 6.67 µM (≈ 19.9 µg/mL)
MIC [13]: 2.7 µM and 5.4 µM
MIC [50]: 5.4 µM (≈ 16.1 µg/mL)
MIC [51]: 2.7 µM (≈ 8.05 µg/mL)
MIC [52]: 2.68 µM (≈ 8 µg/mL)
MIC [53]: 5.37 µM (≈ 16 µg/mL)
MIC [54]: 5 µM (≈ 14.9 µg/mL)
MIC [55]: 3.71 µM (≈ 11 µg/mL)
MIC [56]: 3.71 µM (≈ 11 µg/mL)
MIC [57]: 5.24 µM (≈ 15.6 µg/mL)
MIC [58]: 1.85 µM (≈ 5.53 µg/mL)
SMILES: CC[C@H](C)[C@H](NC(=O)[C@H](C)NC(=O)[C@H](CCCCN)NC(=O)CNC(=O)[C@H](C)NC(=O)[C@H](CO)NC(=O)[C@H](Cc1ccccc1)NC(=O)[C@H](CC(C)C)NC(=O)CNC(=O)CNC(=O)[C@@H](NC(=O)[C@@H](NC(=O)[C@H](Cc1cnc[nH]1)NC(=O)[C@H](Cc1cnc[nH]1)NC(=O)[C@@H](NC(=O)[C@@H](N)Cc1ccccc1)[C@@H](C)CC)[C@@H](C)CC)[C@@H](C)CC)C(=O)N[C@@H](Cc1cnc[nH]1)C(=O)N[C@@H](CCCN=C(N)N)C(=O)N[C@@H](CC(C)C)C(=O)N[C@H](C(=O)N[C@@H](CCCN=C(N)N)C(=O)N[C@@H](CCCN=C(N)N)C(=O)N[C@@H](CCCN=C(N)N)C(=O)N[C@@H](CCCN=C(N)N)C(=O)N[C@@H](CCCN=C(N)N)C(=O)O)[C@@H](C)CC [FIHHIIGGLFSAGKAIHRLIRRRRR]
MIC [44]: ≥ 41.9 µM
